# Measurements reported in ChEMBL document CHEMBL4049443, “Discovery of 2-[[2-Ethyl-6-[4-[2-(3-hydroxyazetidin-1-yl)-2-oxoethyl]piperazin-1-yl]-8-methylimidazo[1,2-a]pyridin-3-yl]methylamino]-4-(4-fluorophenyl)thiazole-5-carbonitrile (GLPG1690), a First-in-Class Autotaxin Inhibitor Undergoing Clinical Evaluation for the Treatment of Idiopathic Pulmonary …” (J Med Chem, 2017).
# How the values were obtained:
# Autotaxin [1] = biological target: Autotaxin (Homo sapiens, UniProt Q13822); test: Inhibition of human ATX using LPC (16:0) as substrate after 30 mins by horseradish peroxidase/choline oxidase coupled enzyme based spectrophotometric analysis
# [2] = Oral bioavailability in mouse at 5 mg/kg; format: ADME, organism-based; details: in vivo
# [3] = biological target: Voltage-gated inwardly rectifying potassium channel KCNH2 (Homo sapiens, UniProt Q12809); test: Inhibition of human ERG by automated patch clamp assay
# Voltage-gated inwardly rectifying potassium channel KCNH2, sequence (Q12809 whole entry): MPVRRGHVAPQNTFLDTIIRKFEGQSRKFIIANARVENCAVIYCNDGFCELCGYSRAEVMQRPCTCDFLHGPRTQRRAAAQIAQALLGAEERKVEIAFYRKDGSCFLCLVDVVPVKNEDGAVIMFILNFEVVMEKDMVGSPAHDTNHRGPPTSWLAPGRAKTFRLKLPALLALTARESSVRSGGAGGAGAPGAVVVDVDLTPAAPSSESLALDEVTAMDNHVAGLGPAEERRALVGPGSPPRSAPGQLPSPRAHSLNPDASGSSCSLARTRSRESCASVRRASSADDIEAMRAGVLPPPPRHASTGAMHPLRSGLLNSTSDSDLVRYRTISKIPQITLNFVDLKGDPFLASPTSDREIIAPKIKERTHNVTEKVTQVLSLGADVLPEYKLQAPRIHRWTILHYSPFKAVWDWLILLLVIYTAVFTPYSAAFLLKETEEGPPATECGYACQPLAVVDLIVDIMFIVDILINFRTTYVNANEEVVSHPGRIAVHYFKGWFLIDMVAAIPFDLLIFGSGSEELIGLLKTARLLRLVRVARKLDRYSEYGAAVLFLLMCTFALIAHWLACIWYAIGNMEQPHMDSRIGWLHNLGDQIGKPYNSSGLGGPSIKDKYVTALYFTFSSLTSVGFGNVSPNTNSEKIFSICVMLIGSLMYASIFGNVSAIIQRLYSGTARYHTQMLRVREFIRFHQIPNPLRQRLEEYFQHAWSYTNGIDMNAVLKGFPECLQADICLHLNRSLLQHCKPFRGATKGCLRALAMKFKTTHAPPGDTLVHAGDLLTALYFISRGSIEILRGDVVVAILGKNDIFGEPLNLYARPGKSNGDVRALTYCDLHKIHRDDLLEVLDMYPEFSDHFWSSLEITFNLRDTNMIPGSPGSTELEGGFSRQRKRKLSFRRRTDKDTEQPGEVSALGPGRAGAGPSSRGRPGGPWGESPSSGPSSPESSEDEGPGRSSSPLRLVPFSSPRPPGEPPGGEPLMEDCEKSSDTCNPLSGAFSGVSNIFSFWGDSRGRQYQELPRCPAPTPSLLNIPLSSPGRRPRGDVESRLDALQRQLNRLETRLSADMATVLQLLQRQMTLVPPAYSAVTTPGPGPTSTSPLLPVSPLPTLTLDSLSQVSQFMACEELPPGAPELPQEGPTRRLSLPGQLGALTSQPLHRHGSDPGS
# [4] = Plasma clearance in mouse at 1 mg/kg, iv; format: ADME, organism-based
# Autotaxin [5] = biological target: Autotaxin (Rattus norvegicus, UniProt Q64610); test: Inhibition of ATX in rat plasma assessed as reduction in LPA 18:2 production after 2 hrs by LC-MS/MS analysis
# [6] = Oral bioavailability in rat at 5 mg/kg; format: ADME, organism-based; details: in vivo
# [7] = Plasma clearance in rat at 1 mg/kg, iv; format: ADME, organism-based
# Cytochrome P450 3A4 = Cytochrome P450 3A4 (Homo sapiens, UniProt P08684); test: Time-dependent inhibition of human liver microsomes CYP3A4; format: ADME
# Cytochrome P450 3A4, sequence (P08684 whole entry): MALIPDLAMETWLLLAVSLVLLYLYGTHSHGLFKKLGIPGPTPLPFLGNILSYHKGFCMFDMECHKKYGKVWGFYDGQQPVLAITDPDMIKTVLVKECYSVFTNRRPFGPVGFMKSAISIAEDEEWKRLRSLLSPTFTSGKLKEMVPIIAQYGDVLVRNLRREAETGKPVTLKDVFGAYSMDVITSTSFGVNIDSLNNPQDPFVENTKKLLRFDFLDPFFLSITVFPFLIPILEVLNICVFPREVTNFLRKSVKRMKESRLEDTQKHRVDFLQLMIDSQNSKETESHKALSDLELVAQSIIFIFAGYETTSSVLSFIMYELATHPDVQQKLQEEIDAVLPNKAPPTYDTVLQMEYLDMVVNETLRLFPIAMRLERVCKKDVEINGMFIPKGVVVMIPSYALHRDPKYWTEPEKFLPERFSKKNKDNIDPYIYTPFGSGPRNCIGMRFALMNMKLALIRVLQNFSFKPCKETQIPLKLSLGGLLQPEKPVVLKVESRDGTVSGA
# [8] = Chemical stability of the compound in DMSO by LC-MS analysis; format: physicochemical
# [9] = Chemical stability of the compound in DMSO by 1H NMR analysis; format: physicochemical
IC50 (Autotaxin [1]),bioavailability [2],clearance [4],IC50 (Autotaxin [5]),bioavailability [6],clearance [7],TDI (Cytochrome P450 3A4),Stability [8],Stability [9],SMILES,IC50 [3]
27 nM,12%,20 mL/min/kg,22 nM,15%,51.7 mL/min/kg,Active,–,–,CCc1nc2ccc(C3CCN(CC(=O)N4CC(O)C4)CC3)cn2c1N(C)c1nc(-c2ccc(F)cc2)c(C#N)s1,2900 nM
246 nM,–,–,–,–,–,Active,–,–,CCc1nc2ccc(C3CCN(CC(=O)N4CC(O)C4)CC3)cn2c1N(C)c1nc(-c2ccc(F)cc2)cs1,–
297 nM,–,–,–,–,–,Active,–,–,CCc1nc2ccc(C3CCN(CC(=O)N4CC(O)C4)CC3)nn2c1N(C)c1nc(-c2ccc(F)cc2C#N)ns1,–
811 nM,–,–,–,–,–,Not Active,–,–,CCc1nc2cc(C)c(C3CCN(CC(=O)N4CC(O)C4)CC3)cn2c1N(C)c1nc(-c2ccc(F)cc2)cs1,–
102 nM,–,–,–,–,–,Not Active,Unstable,Unstable,CCc1nc2cnc(N3CCN(CC(=O)N4CC(O)C4)CC3)cn2c1N(C)c1nc(-c2ccc(F)cc2)c(C#N)s1,–
26 nM,–,–,–,–,–,Active,–,–,CCc1nc2ccc(N3CCN(CC(=O)N4CC(O)C4)CC3)cn2c1N(C)c1nc(-c2ccc(F)cc2)c(C#N)s1,> 11000 nM
